Source: patent US20220175793A1, “THE USE OF AN MGLUR5 ANTAGONIST FOR TREATING OPIOID ANALGESIC TOLERANCE” (NOVARTIS AG, priority 2019, published 2022)

Test system: morphine tolerant mice
Assay: Opiate tolerance test (hot plate) in the mouse
Assay type: in vivo
Conditions: for foot-licking latency, change as compared with animals receiving morphine from Day 1 to Day 6: morphine 32 mg/kg i.p. twice daily Day 1 to Day 6, hot plate 54° C.
Experimental: The method, which detects tolerance to analgesic activity, follows that described by Fernandes et al (Naunyn-Schmiedeberg's Arch. Pharmacol., 297, 53-60, 1977).
Mice were placed onto a hot metal plate maintained at 54° C. surrounded by a Plexiglas cylinder (height: 13 cm; diameter: 19 cm) (Bioseb: model PE34). The latency to the first foot-lick was measured (maximum: 30 seconds). Morphine (32 mg/kg i.p.) or vehicle were administered twice daily for 6 days (at about 9:00 and 15:00), and then administered with morphine 8 mg/kg i.p. (or saline) 30 minutes before the test on Day 7 to assess morphine tolerance.
The test substances were each evaluated at 3 doses (1, 3 and 10 mg/kg for Compound (I) and 0.3, 1 and 3 mg/kg for Compound (II), administered in morphine tolerant mice p.o. acutely 60 minutes before the test on Day 7. The experiment included appropriate control groups to assess the potential effects of the test substances on morphine tolerance. Compound (III) was evaluated at 1 dose (10 mg/kg), administered under the same experimental conditions and was used as comparison substance.
10 mice were studied per group. The test was performed blind. Data were analysed by comparing treated groups with appropriate controls using unpaired Student's t tests.

[1] = 1 mg/kg p.o. acutely 60 minutes before the test on Day 7
[2] = 3 mg/kg p.o. acutely 60 minutes before the test on Day 7
[3] = 10 mg/kg p.o. acutely 60 minutes before the test on Day 7

COC(=O)N1CC[C@@H]2[C@H]1CCC[C@@]2(O)C#Cc1cccc(C)c1 [Compound (I), (−)-(3aR,4S,7aR)-4-Hydroxy-4-m-tolylethynyl-octahydro-indole-1-carboxylic acid methyl ester]
expression of morphine tolerance (conclusion) (1 mg/kg p.o. acutely): significantly decrease the expression of morphine tolerance
foot-licking latency, change as compared with animals receiving morphine from Day 1 to Day 6 [1]: +44%
foot-licking latency, change as compared with animals receiving morphine from Day 1 to Day 6 [2]: no significant effects
foot-licking latency, change as compared with animals receiving morphine from Day 1 to Day 6 [3]: no significant effects

COCc1cn(C2=NCC(=O)N3CCc4c(ccc(F)c4C4CC4)C3=C2)cn1 [Compound (II), 9-cyclopropyl-10-fluoro-2-(4-(methoxymethyl)-1H-imidazol-1-yl)-7,8-dihydro-[1,4]diazepino[7,1-a]isoquinolin-5(4H)-one]
foot-licking latency, change as compared with animals receiving morphine from Day 1 to Day 6 (0.3 mg/kg p.o. acutely 60 minutes before the test on Day 7): no effects
foot-licking latency, change as compared with animals receiving morphine from Day 1 to Day 6 [1]: +37%
expression of morphine tolerance (conclusion) (3 mg/kg p.o. acutely): significantly decrease the expression of morphine tolerance
foot-licking latency, change as compared with animals receiving morphine from Day 1 to Day 6 [2]: +38%

Cc1cccc(C#Cc2ccccc2)n1 [Compound (III), 2-methyl-6-(phenylethynyl)pyridine, reference compound]
expression of morphine tolerance (conclusion) (10 mg/kg p.o. acutely): significantly decrease the expression of morphine tolerance
foot-licking latency, change as compared with animals receiving morphine from Day 1 to Day 6 [3]: +32%
